Reference: patent US12365692B2, “6-hydroxy-8-oxatricyclo[3.2.1.02,4]octane-2-carboxamide derivatives for inducing chondrogenesis for treating joint damage” (NOVARTIS AG, priority 2018, dated 2025)

System: ALP in NHAC (normal human articular chondrocytes)
Experiment: Alkaline Phosphatase (ALP) activity assay: ALP staining and quantitation in NHACs (prevention of chondrocyte hypertrophy)
Format: cell-based
Conditions: Chondrocyte, 288 h, human IL-1 beta 10 ng/mL, 12 days; for IC50: Fast Blue RR staining, high content imaging; for Emax: read-out: ALP in NHAC (% Efficacy)
Description: The compounds of the present invention were evaluated in the Alkaline Phosphatase (ALP) activity assay to determine the ability of the compounds to prevent chondrocyte hypertrophy in normal human articular chondrocytes (NHACs).
Normal human articular chondrocytes (NHACs) were purchased from PromoCell (Heidelberg, Germany) and grown in Chondrocyte Growth Medium (CGM; Lonza, Walkersville, Md.).
NHACs were expanded in Chondrocyte Growth Medium (CGM) from Lonza until they reached a 60-80% confluency. To initiate differentiation, 7,500 cells were plated/well with indicated test compound dose in 384-well Cell Carrier Ultra plates (Perkin Elmer) with DMEM (SH30022—HyClone) containing 10% FBS (35-015-CV—Corning), 1% Pen/Strep antibiotics (SV30010—HyClone), and 1% Normocin (50 mg/mL—InvivoGen). Cells with test compounds were incubated at 37° C., 5% CO2 for 5 hours and then added human IL-1 beta (AF-200-1B—Peprotech) to each well at a final concentration of 10 ng/mL and incubated at 37° C., 5% CO2 for 12 days.
To detect the presence of hypertrophic cells, NHACs were fixed with 4% paraformaldehyde and Hoechst 33342 (Invitrogen) dye for 30 minutes, rinsed in PBS, then stained with Fast Blue RR Salt (F0500—Sigma) with Naphthol AS-MX Phosphate Alkaline Solution, 0.25% (855—Sigma-Aldrich).
The staining was imaged by fluoresecent microscopy, using the 561 nm wavelength, and/or quantified by high content imaging with the ImageXpress Confocal (Molecular Devices, Sunnyvale, CA). Data analyses were performed with a customized multiwavelength cell-scoring application The activity of the compounds of the present invention in the ALP assay is summarized in Table 2.

SMILES | IC50 [µM] | Emax [%]
Cn1cc([C@@]23C[C@]2(C(=O)Nc2ccc(C(F)(F)F)c(Cl)c2)[C@H]2C[C@H](O)[C@@H]3O2)c(C(F)(F)F)n1 (racemic) [Example 40, rac-(1R,2R,4S,5R,6S)—N-(3-chloro-4-(trifluoromethyl)phenyl)-6-hydroxy-4-(1-methyl-3-(trifluoromethyl)-1H-pyrazol-4-yl)-8-oxatricyclo[3.2.1.02,4]octane-2-carboxamide] | 9.5 | 91
COc1cc([C@@]23C[C@]2(C(=O)Nc2ccc(C(F)(F)F)cc2)[C@H]2C[C@H](O)[C@@H]3O2)ccn1 (racemic) [Example 76, rac-(1R,2R,4S,5R,6S)-6-hydroxy-4-(2-methoxypyridin-4-yl)-N-(4-(trifluoromethyl)phenyl)-8-oxatricyclo[3.2.1.02,4]octane-2-carboxamide] | 15 | 57
Cn1cc([C@@]23C[C@]2(C(=O)Nc2cccc(C(F)(F)F)c2)[C@H]2C[C@H](O)[C@@H]3O2)c(C(F)(F)F)n1 (racemic) [Example 49, rac-(1R,2R,4S,5R,6S)-6-hydroxy-4-(1-methyl-3-(trifluoromethyl)-1H-pyrazol-4-yl)-N-(3-(trifluoromethyl)phenyl)-8-oxatricyclo[3.2.1.02,4]octane-2-carboxamide] | > 30 | 35
O=C(Nc1cc(C(F)(F)F)ccc1F)[C@]12C[C@@]1(c1ccnc(F)c1)[C@H]1O[C@@H]2C[C@@H]1O (racemic) [Example 17, rac-(1R,2R,4S,5R,6S)—N-(2-fluoro-5-(trifluoromethyl)phenyl)-4-(2-fluoropyridin-4-yl)-6-hydroxy-8-oxatricyclo[3.2.1.02,4]octane-2-carboxamide] | > 30 | 17
COc1cc([C@@]23C[C@]2(C(=O)Nc2ccc(C(F)(F)F)c(F)c2)[C@H]2C[C@H](O)[C@@H]3O2)ccn1 (racemic) [Example 75, rac-(1R,2R,4S,5R,6S)—N-(3-fluoro-4-(trifluoromethyl)phenyl)-6-hydroxy-4-(2-methoxypyridin-4-yl)-8-oxatricyclo[3.2.1.02,4]octane-2-carboxamide] | > 30 | 26
COc1ccc(C(F)(F)F)cc1NC(=O)[C@]12C[C@@]1(c1cn(C)nc1C(F)(F)F)[C@H]1O[C@@H]2C[C@@H]1O (racemic) [Example 62, rac-(1R,2R,4S,5R,6S)-6-hydroxy-N-(2-methoxy-5-(trifluoromethyl)phenyl)-4-(1-methyl-3-(trifluoromethyl)-1H-pyrazol-4-yl)-8-oxatricyclo[3.2.1.02,4]octane-2-carboxamide] | > 30 | 26
COc1cc([C@@]23C[C@]2(C(=O)Nc2ccc(Cl)c(C(F)(F)F)c2)[C@H]2C[C@H](O)[C@@H]3O2)ccn1 (racemic) [Example 70, rac-(1R,2R,4S,5R,6S)—N-(4-chloro-3-(trifluoromethyl)phenyl)-6-hydroxy-4-(2-methoxypyridin-4-yl)-8-oxatricyclo[3.2.1.02,4]octane-2-carboxamide] | > 30 | 39
Cc1ccc(C(F)(F)F)cc1NC(=O)[C@]12C[C@@]1(c1cn(C)nc1C(F)(F)F)[C@H]1O[C@@H]2C[C@@H]1O (racemic) [Example 53, rac-(1R,2R,4S,5R,6S)-6-hydroxy-4-(1-methyl-3-(trifluoromethyl)-1H-pyrazol-4-yl)-N-(2-methyl-5-(trifluoromethyl)phenyl)-8-oxatricyclo[3.2.1.02,4]octane-2-carboxamide] | > 30 | 23
Cn1cc([C@@]23C[C@]2(C(=O)Nc2cccc(C(F)(F)F)c2F)[C@H]2C[C@H](O)[C@@H]3O2)c(C(F)(F)F)n1 (racemic) [Example 54, rac-(1R,2R,4S,5R,6S)—N-(2-fluoro-3-(trifluoromethyl)phenyl)-6-hydroxy-4-(1-methyl-3-(trifluoromethyl)-1H-pyrazol-4-yl)-8-oxatricyclo[3.2.1.02,4]octane-2-carboxamide] | > 30 | 7
Cn1cc([C@@]23C[C@]2(C(=O)Nc2ccc(N4CCOCC4)c(C(F)(F)F)c2)[C@H]2C[C@H](O)[C@@H]3O2)c(C(F)(F)F)n1 (racemic) [Example 64, rac-(1R,2R,4S,5R,6S)-6-hydroxy-4-(1-methyl-3-(trifluoromethyl)-1H-pyrazol-4-yl)-N-(4-morpholino-3-(trifluoromethyl)phenyl)-8-oxatricyclo[3.2.1.02,4]octane-2-carboxamide] | > 30 | 28
Cc1ccc(NC(=O)[C@]23C[C@@]2(c2cn(C)nc2C(F)(F)F)[C@H]2O[C@@H]3C[C@@H]2O)cc1C(F)(F)F (racemic) [Example 51, rac-(1R,2R,4S,5R,6S)-6-hydroxy-4-(1-methyl-3-(trifluoromethyl)-1H-pyrazol-4-yl)-N-(4-methyl-3-(trifluoromethyl)phenyl)-8-oxatricyclo[3.2.1.02,4]octane-2-carboxamide] | > 30 | 45
O=C(Nc1ccc(C(F)(F)F)c(F)c1)[C@]12C[C@@]1(c1ccnc(F)c1)[C@H]1O[C@@H]2C[C@@H]1O (racemic) [Example 2, rac-(1R,2R,4S,5R,6S)-N-(3-fluoro-4-(trifluoromethyl)phenyl)-4-(2-fluoropyridin-4-yl)-6-hydroxy-8-oxatricyclo[3.2.1.02,4]octane-2-carboxamide] | > 30 | 28
O=C(Nc1cc(C(F)(F)F)ccn1)[C@]12C[C@@]1(c1ccnc(F)c1)[C@H]1O[C@@H]2C[C@@H]1O (racemic) [Example 1, rac-(1R,2R,4S,5R,6S)-4-(2-fluoropyridin-4-yl)-6-hydroxy-N-(4-(trifluoromethyl)pyridin-2-yl)-8-oxatricyclo[3.2.1.02,4]octane-2-carboxamide] | > 30 | 28
Cc1cc(C(F)(F)F)cc(NC(=O)[C@]23C[C@@]2(c2ccnc(F)c2)[C@H]2O[C@@H]3C[C@@H]2O)n1 (racemic) [Example 7, rac-(1R,2R,4S,5R,6S)-4-(2-fluoropyridin-4-yl)-6-hydroxy-N-(6-methyl-4-(trifluoromethyl)pyridin-2-yl)-8-oxatricyclo[3.2.1.02,4]octane-2-carboxamide] | > 30 | 0
O=C(Nc1cccc(C(F)(F)F)c1F)[C@]12C[C@@]1(c1ccnc(F)c1)[C@H]1O[C@@H]2C[C@@H]1O (racemic) [Example 14, rac-(1R,2R,4S,5R,6S)—N-(2-fluoro-3-(trifluoromethyl)phenyl)-4-(2-fluoropyridin-4-yl)-6-hydroxy-8-oxatricyclo[3.2.1.02,4]octane-2-carboxamide] | > 30 | 8
Cn1cc([C@@]23C[C@]2(C(=O)Nc2cc(C(F)(F)F)ccn2)[C@H]2C[C@H](O)[C@@H]3O2)c(C(F)(F)F)n1 (racemic) [Example 43, rac-(1R,2R,4S,5R,6S)-6-hydroxy-4-(1-methyl-3-(trifluoromethyl)-1H-pyrazol-4-yl)-N-(4-(trifluoromethyl)pyridin-2-yl)-8-oxatricyclo[3.2.1.02,4]octane-2-carboxamide] | > 30 | 49
COc1cc(NC(=O)[C@]23C[C@@]2(c2cn(C)nc2C(F)(F)F)[C@H]2O[C@@H]3C[C@@H]2O)cc(C(F)(F)F)c1 (racemic) [Example 61, rac-(1R,2R,4S,5R,6S)-6-hydroxy-N-(3-methoxy-5-(trifluoromethyl)phenyl)-4-(1-methyl-3-(trifluoromethyl)-1H-pyrazol-4-yl)-8-oxatricyclo[3.2.1.02,4]octane-2-carboxamide] | > 30 | 29
COc1cc([C@@]23C[C@]2(C(=O)Nc2cc(C(F)(F)F)ccc2OC)[C@H]2C[C@H](O)[C@@H]3O2)ccn1 (racemic) [Example 36, rac-(1R,2R,4S,5R,6S)-6-hydroxy-N-(2-methoxy-5-(trifluoromethyl)phenyl)-4-(2-methoxypyridin-4-yl)-8-oxatricyclo[3.2.1.02,4]octane-2-carboxamide] | 18 | 65
Cn1cc([C@@]23C[C@]2(C(=O)Nc2cc(C(F)(F)F)ccc2F)[C@H]2C[C@H](O)[C@@H]3O2)c(C(F)(F)F)n1 (racemic) [Example 57, rac-(1R,2R,4S,5R,6S)-N-(2-fluoro-5-(trifluoromethyl)phenyl)-6-hydroxy-4-(1-methyl-3-(trifluoromethyl)-1H-pyrazol-4-yl)-8-oxatricyclo[3.2.1.02,4]octane-2-carboxamide] | > 30 | 24
O=C(Nc1cc(C(F)(F)F)ccc1F)[C@]12C[C@@]1(c1cccc(C(F)(F)F)c1)[C@H]1O[C@@H]2C[C@@H]1O (racemic) [Example 81, rac-(1R,2R,4S,5R,6S)—N-(2-fluoro-5-(trifluoromethyl)phenyl)-6-hydroxy-4-(3-(trifluoromethyl)phenyl)-8-oxatricyclo[3.2.1.02,4]octane-2-carboxamide] | > 30 | 47
